Laboratory results as given in article PMC6912803, “Sideritis Perfoliata (Subsp. Perfoliata) Nutritive Value and Its Potential Medicinal Properties” (Antioxidants, 2019).

Experiments:
mushroom tyrosinase = system: T1, mushroom tyrosinase; assay: L-tyrosine oxidation, absorbance at […] nm over […] min; format: biochemical; set-up: reference not given here; settings: 2 mM L-tyrosine stock (110 µL added), potassium phosphate pH 6.5, room temperature, 5 min preincubation
T1 construct: gene PPO3; native commercial mushroom tyrosinase (Sigma-Aldrich), isoenzyme mixture

[1] = target: T2, Porcine pancreatic elastase (PPE) (Sus scrofa, UniProt P00772); assay: N-succinyl-(Ala)3-p-nitroanilide hydrolysis, absorbance at […] nm; format: biochemical; settings: read-out: Positive Control MIC/IC50 ± SD (μg/mL) (converted)
T2 construct: gene CELA1; mature active protease
T2 sequence (P00772 27-266): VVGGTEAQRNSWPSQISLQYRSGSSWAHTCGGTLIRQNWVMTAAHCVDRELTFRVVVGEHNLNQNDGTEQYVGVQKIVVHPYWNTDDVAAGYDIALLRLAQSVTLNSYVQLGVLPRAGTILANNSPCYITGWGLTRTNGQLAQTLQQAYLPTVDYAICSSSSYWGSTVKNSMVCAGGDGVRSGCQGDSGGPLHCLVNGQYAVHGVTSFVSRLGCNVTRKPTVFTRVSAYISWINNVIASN

| Positive Control MIC/IC50 ± SD (mushroom tyrosinase) | IC50 [1] | SMILES |
| --- | --- | --- |
| 2.84 ± 0.23 µg/mL |  | O=c1cc(CO)occ1O [kojic acid] |
|  | 40.4 µM | C[C@H]1[C@H](C)CC[C@]2(C(=O)O)CC[C@]3(C)C(=CC[C@@H]4[C@@]5(C)CC[C@H](O)C(C)(C)[C@@H]5CC[C@]43C)[C@H]12 [ursolic acid] |
